Source: publication PMC8903829 (eLife, 2022)

How the values were obtained:
Format in all cases: cell-based
hNaV1.6 T767I = target: T1, hNaV1.6 T767I (Homo sapiens, UniProt Q9UQD0, T767I); test: Automated patch-clamp, patient-identified variant in Expi293F cells; conditions: -8.33 LogM
T1 construct: expression vector containing the full-length cDNA coding for specific human and mouse sodium channel α-subunit; expressed in transfected cells; host or cells: Expi293F (transient, tetracycline-induced, pcDNA4/TO)
T1 sequence (Q9UQD0 whole entry T767I): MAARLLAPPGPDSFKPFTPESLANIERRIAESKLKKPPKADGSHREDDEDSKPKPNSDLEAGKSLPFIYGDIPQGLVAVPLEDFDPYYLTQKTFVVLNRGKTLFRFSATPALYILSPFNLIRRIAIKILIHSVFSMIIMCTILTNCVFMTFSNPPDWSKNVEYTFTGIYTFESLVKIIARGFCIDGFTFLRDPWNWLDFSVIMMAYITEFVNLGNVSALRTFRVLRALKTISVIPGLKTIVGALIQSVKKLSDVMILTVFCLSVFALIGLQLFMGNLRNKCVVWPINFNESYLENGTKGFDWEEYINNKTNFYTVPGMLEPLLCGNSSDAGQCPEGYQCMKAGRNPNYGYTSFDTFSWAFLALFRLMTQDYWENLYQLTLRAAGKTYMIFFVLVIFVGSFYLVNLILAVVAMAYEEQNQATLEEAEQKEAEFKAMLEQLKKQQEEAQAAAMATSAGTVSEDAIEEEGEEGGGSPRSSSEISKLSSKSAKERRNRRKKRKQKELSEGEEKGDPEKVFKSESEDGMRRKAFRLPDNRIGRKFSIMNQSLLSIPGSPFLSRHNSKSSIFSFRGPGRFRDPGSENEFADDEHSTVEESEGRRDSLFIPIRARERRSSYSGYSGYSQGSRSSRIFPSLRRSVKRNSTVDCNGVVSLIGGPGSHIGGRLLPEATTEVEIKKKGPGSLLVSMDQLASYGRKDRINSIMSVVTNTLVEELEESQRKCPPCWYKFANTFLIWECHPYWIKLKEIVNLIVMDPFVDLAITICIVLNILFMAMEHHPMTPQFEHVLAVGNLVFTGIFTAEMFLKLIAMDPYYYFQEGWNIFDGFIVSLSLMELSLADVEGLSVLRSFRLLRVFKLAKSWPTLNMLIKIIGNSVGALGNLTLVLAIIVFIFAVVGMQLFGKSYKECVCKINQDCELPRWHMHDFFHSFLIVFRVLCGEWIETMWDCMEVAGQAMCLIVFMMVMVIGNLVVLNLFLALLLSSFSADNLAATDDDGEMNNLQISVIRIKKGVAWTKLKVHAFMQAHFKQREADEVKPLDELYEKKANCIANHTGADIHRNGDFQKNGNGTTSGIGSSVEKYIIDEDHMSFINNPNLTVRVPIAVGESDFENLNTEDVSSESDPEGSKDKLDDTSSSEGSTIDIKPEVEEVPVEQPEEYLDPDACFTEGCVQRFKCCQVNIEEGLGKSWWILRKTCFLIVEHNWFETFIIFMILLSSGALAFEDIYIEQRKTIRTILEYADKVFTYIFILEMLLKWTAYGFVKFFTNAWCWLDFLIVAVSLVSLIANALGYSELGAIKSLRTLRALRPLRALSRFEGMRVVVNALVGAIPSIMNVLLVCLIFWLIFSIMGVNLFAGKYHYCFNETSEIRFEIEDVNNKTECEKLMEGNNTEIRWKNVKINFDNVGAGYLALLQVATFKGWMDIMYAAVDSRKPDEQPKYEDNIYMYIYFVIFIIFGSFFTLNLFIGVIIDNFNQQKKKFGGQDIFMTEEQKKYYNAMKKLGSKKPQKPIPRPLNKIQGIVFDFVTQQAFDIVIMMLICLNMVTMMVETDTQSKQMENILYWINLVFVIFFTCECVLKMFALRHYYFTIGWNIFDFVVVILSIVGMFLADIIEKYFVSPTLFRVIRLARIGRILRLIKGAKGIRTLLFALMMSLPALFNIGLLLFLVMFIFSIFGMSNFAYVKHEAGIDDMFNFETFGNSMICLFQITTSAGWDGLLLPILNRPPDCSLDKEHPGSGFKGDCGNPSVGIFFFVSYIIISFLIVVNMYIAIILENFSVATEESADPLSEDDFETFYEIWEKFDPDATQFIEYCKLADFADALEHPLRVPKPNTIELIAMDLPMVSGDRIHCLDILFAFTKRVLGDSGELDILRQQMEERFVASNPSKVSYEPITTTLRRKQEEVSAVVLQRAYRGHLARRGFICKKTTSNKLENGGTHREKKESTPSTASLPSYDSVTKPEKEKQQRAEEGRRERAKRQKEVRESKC
Method: (§1) For studies of mutant channels, cDNA plasmids in pcDNA4/TO Mammalian Expression Vector were transiently transfected into Expi293F cells stably expressing human FHF2b and human SCN1B subunit (polyclonal) background using ExpiFectamine 293 Transfection Kits (Gibco,Thermo Fisher Scientific CAT #: A14524). Induction was achieved using Tetracycline (Sigma Aldrich). Transfected cells were used in automated patch-clamp experiments 24 hours postinduction.
(§2) Inorm(CPD)=(ICPD−Icontrol)/(ITTX−Icontrol).

hNaV1.6 R1872W = target: T2, hNaV1.6 R1872W (Homo sapiens, UniProt Q9UQD0, R1872W); test: as above
T2 construct: expression vector containing the full-length cDNA coding for specific human and mouse sodium channel α-subunit; expressed in transfected cells; host or cells: Expi293F (transient, tetracycline-induced, pcDNA4/TO)
T2 sequence (Q9UQD0 whole entry R1872W): as the sequence (Q9UQD0 whole entry T767I) above, with I767T, R1872W counted along it
Method: as §1, §2

hNaV1.6 N1877S = target: T3, hNaV1.6 N1877S (Homo sapiens, UniProt Q9UQD0, N1877S); test: as above
T3 construct: expression vector containing the full-length cDNA coding for specific human and mouse sodium channel α-subunit; expressed in transfected cells; host or cells: Expi293F (transient, tetracycline-induced, pcDNA4/TO)
T3 sequence (Q9UQD0 whole entry N1877S): as the sequence (Q9UQD0 whole entry T767I) above, with I767T, N1877S counted along it
Method: as §1, §2

hNaV1.6 N1768D = target: T4, hNaV1.6 N1768D (Homo sapiens, UniProt Q9UQD0, N1768D); test: as above
T4 construct: expression vector containing the full-length cDNA coding for specific human and mouse sodium channel α-subunit; expressed in transfected cells; host or cells: Expi293F (transient, tetracycline-induced, pcDNA4/TO)
T4 sequence (Q9UQD0 whole entry N1768D): as the sequence (Q9UQD0 whole entry T767I) above, with I767T, N1768D counted along it
Method: as §1, §2

hNaV1.1 = target: T5, hNaV1.1 (Homo sapiens, UniProt P35498); test: Qube 384 automated patch-clamp, inactivated-state inhibition
T5 construct: expression vector containing the full-length cDNA coding for specific human and mouse sodium channel α-subunit; expressed in transfected cells

hNaV1.6 = target: T6, hNaV1.6 (Homo sapiens, UniProt Q9UQD0); test: Automated patch-clamp, rested state 'Peak' current (Vh -120 mV)
T6 construct: expression vector containing the full-length cDNA coding for specific human and mouse sodium channel α-subunit; expressed in transfected cells
T6 sequence (Q9UQD0 whole entry): as the sequence (Q9UQD0 whole entry T767I) above, with I767T counted along it
T6 sequence (Q92913 1-192 isoform Q92913-2 partner): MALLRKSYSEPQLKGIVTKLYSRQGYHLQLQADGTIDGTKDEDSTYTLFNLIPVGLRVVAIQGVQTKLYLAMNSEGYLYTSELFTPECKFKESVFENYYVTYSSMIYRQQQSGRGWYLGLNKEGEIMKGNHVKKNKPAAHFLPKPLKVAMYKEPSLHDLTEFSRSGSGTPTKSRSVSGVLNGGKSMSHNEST
Excerpt: Holding the membrane potential at –120 mV induces most channels to reside in the resting state. […] Holding the membrane potential at –45 mV encourages channels to transition into inactivated states. Brief hyperpolarizations allow rapid recovery from inactivation for channels that are not bound to drug followed by a short 20ms test pulse to –20 mV to measure currents from unbound channels (see Materials and methods for details).
as §2

[1] = target: T7, hNaV1.6(N1768D) resurgent currents (Homo sapiens, UniProt Q9UQD0, N1768D); test: Resurgent current inhibition
T7 construct: expression vector containing the full-length cDNA coding for specific human and mouse sodium channel α-subunit; expressed in transfected cells
T7 sequence (Q9UQD0 whole entry N1768D): as the sequence (Q9UQD0 whole entry T767I) above, with I767T, N1768D counted along it
T7 sequence (Q92913 1-192 isoform Q92913-2 partner): as the sequence (Q92913 1-192 isoform Q92913-2 partner) above

Cc1cc(S(=O)(=O)Nc2cscn2)c(F)cc1N(C)[C@H]1CCN(Cc2ccccc2)C1 [NBI-921352]
h1.6-T767I 145756, Mean (hNaV1.6 T767I): 0.1
h1.6-R1872W 145756, Mean (hNaV1.6 R1872W; -5 LogM): 0.9
h1.6-R1872W 145756, Mean (hNaV1.6 R1872W; -6 LogM): 0.87
h1.6-R1872W 145756, Mean (hNaV1.6 R1872W; -7 LogM): 0.55
h1.6-R1872W 145756, Mean (hNaV1.6 R1872W; -8 LogM): 0.13
h1.6-N1877S 145756 norm, Mean (hNaV1.6 N1877S; -5 LogM): 0.94
h1.6-N1877S 145756 norm, Mean (hNaV1.6 N1877S; -5.47716 LogM): 0.93
h1.6-N1877S 145756 norm, Mean (hNaV1.6 N1877S; -5.95429 LogM): 0.88
h1.6-N1877S 145756 norm, Mean (hNaV1.6 N1877S; -6.4318 LogM): 0.84
h1.6-N1877S 145756 norm, Mean (hNaV1.6 N1877S; -6.91009 LogM): 0.68
h1.6-N1877S 145756 norm, Mean (hNaV1.6 N1877S; -7.38722 LogM): 0.53
h1.6-N1877S 145756 norm, Mean (hNaV1.6 N1877S; -7.85387 LogM): 0.27
h1.6-N1877S 145756 norm, Mean (hNaV1.6 N1877S; -8.33 LogM): 0.1
h1.6-N1768D 145756 norm, Mean (hNaV1.6 N1768D; -5 LogM): 0.9
h1.6-N1768D 145756 norm, Mean (hNaV1.6 N1768D; -5.47716 LogM): 0.88
h1.6-N1768D 145756 norm, Mean (hNaV1.6 N1768D; -5.95429 LogM): 0.82
h1.6-N1768D 145756 norm, Mean (hNaV1.6 N1768D; -6.4318 LogM): 0.74
h1.6-N1768D 145756 norm, Mean (hNaV1.6 N1768D; -6.91009 LogM): 0.62
h1.6-N1768D 145756 norm, Mean (hNaV1.6 N1768D; -7.38722 LogM): 0.46
h1.6-N1768D 145756 norm, Mean (hNaV1.6 N1768D; -7.85387 LogM): 0.18
h1.6-N1768D 145756 norm, Mean (hNaV1.6 N1768D; -8.33 LogM): 0.03
hNav1.1 current in (352)/(Vehicle), mean (hNaV1.1; -4 Log M): 0.68
hNav1.1 current in (352)/(Vehicle), mean (hNaV1.1; -4.30103 Log M): 0.57
hNav1.1 current in (352)/(Vehicle), mean (hNaV1.1; -4.47713 Log M): 0.44
hNav1.1 current in (352)/(Vehicle), mean (hNaV1.1; -4.77814 Log M): 0.3
hNav1.1 current in (352)/(Vehicle), mean (hNaV1.1; -4.95425 Log M): 0.25
hNav1.1 current in (352)/(Vehicle), mean (hNaV1.1; -5.25524 Log M): 0.16
hNav1.1 current in (352)/(Vehicle), mean (hNaV1.1; -5.43133 Log M): 0.12
hNav1.1 current in (352)/(Vehicle), mean (hNaV1.1; -5.73236 Log M): 0.07
hNav1.1 current in (352)/(Vehicle), mean (hNaV1.1; -5.90833 Log M): 0.07
hNav1.1 current in (352)/(Vehicle), mean (hNaV1.1; -6.20971 Log M): 0.04
hNav1.1 current in (352)/(Vehicle), mean (hNaV1.1; -6.3851 Log M): 0.03
hNav1.1 current in (352)/(Vehicle), mean (hNaV1.1; -6.68613 Log M): 0.05
hNav1.1 current in (352)/(Vehicle), mean (hNaV1.1; -6.86328 Log M): 0.01
hNav1.1 current in (352)/(Vehicle), mean (hNaV1.1; -7.16115 Log M): 0.04
hNav1.1 current in (352)/(Vehicle), mean (hNaV1.1; -7.33724 Log M): 0
hNav1.1 current in (352)/(Vehicle), mean (hNaV1.1; -7.63827 Log M): 0.01
IC50 (hNaV1.6): 36 µM
hNav1.6 current in (352)/(Vehicle), Rested (-120mV), mean (hNaV1.6; -4 Log M): 0.8706
hNav1.6 current in (352)/(Vehicle), Rested (-120mV), mean (hNaV1.6; -4.47713 Log M): 0.4353
hNav1.6 current in (352)/(Vehicle), Rested (-120mV), mean (hNaV1.6; -4.95425 Log M): 0.1765
hNav1.6 current in (352)/(Vehicle), Rested (-120mV), mean (hNaV1.6; -5.43133 Log M): 0.09412
hNav1.6 current in (352)/(Vehicle), Rested (-120mV), mean (hNaV1.6; -5.90833 Log M): -0.01176
hNav1.6 current in (352)/(Vehicle), Rested (-120mV), mean (hNaV1.6; -6.3851 Log M): -0.02353
hNav1.6 current in (352)/(Vehicle), Rested (-120mV), mean (hNaV1.6; -6.86328 Log M): 0.1176
hNav1.6 current in (352)/(Vehicle), Rested (-120mV), mean (hNaV1.6; -7.33724 Log M): 0.05882
N1768D current in (352)/(Vehicle), Resurgent, mean ([1]; -5 Log M): 0.94
N1768D current in (352)/(Vehicle), Resurgent, mean ([1]; -5.47716 Log M): 0.88
N1768D current in (352)/(Vehicle), Resurgent, mean ([1]; -5.95429 Log M): 0.86
N1768D current in (352)/(Vehicle), Resurgent, mean ([1]; -6.91009 Log M): 0.8
N1768D current in (352)/(Vehicle), Resurgent, mean ([1]; -7.38722 Log M): 0.57
N1768D current in (352)/(Vehicle), Resurgent, mean ([1]; -7.85387 Log M): 0.18
IC50 ([1]; NaVβ4 peptide 200 μM intracellular, read-out: apparent IC50 resurgent currents from N1768D channels): 0.037 µM
